Results reported in US20250353825A1, “CANNABICYCLOL DERIVATIVES AND PREPARATION METHODS THEREOF” (priority 2023, published 2025).
Where two headings read alike, the source gives them in different places.

How the values were obtained:
Type in all cases: cell-based
GSC-3 (3#-GSC) = assay: MTS cell viability assay, glioblastoma stem cells GSC-3 (3#-GSC); conditions: for selective anti-glioma stem cell viability: judged in words from preliminary viability screening against 3#-GSC, 293T and U251
Method: (§1) Primary viability screening: (1) the synthesized compounds 3a to 13d were respectively dissolved in DMSO to prepare a 40 μg/mL cannabicyclol and cannabicyclol derivative solutions.
(§2) (2) A control group: a 200 μL DMSO solvent.
(§3) (3) The solutions of compounds 3a to 13d were diluted in a twofold gradient to obtain cannabicyclol and cannabicyclol derivative solutions at concentrations of 40 μg/mL, 20 μg/mL, 10 μg/mL, 5 μg/mL, 2.5 μg/mL, 1.25 μg/mL, and 0.625 μg/mL, and 0.3125 μg/mL, respectively.
(§4) (4) Three glioblastoma stem cells (GSC-3, GSC-12, and GSC-18), three pancreatic cancer cell-derived stem cells (PANC-1-CSC, BXPC-3-CSC, and ASPC1-CSC), three liver cancer cell-derived stem cells (HepG2-CSC, MHCC97H-CSC, and SMMC7721-CSC), HEK-293T cells, 16 tumor cells (U251, U87, T98G, PANC1, BXPC3, ASPC1, HepG2, MHCC97H, SMMC7721, PC3, SKOV3, MDA-MB231, A549, HCT116, HEC-1B, MKN28), and differentiated glioblastoma stem cells (GSC-3diff and GSC-12diff) derived from GSC-3 and GSC-12 (all of the cells were provided by the Laboratory of Tumor Animal Model Preparation and Application Research, West China Hospital, Sichuan University) were inoculated into a 96-well plate at a concentration of 2×10^4 cells/well, and 100 μL of culture medium was then added to each well;
(§5) (5) 2) HEK-293T, GSC-3diff, GSC-12diff, and the 16 tumor cells were added with DMEM, 10% FBS, and 1% double antibody culture medium. Cancer stem cells (CSCs) were added with serum-free stem cell medium consisting of DMEM/F12, EGF (20 ng/mL), bFGF (20 ng/mL), B27 (1×), and 1% double antibody culture medium.
(§6) (6) Inoculated cells were put into a cell culture incubator for 24 hours, and after the cells were well adhered to the wall, the culture medium in the 96-well plate was discarded.
(§7) (7) 200 μL cannabicyclol and cannabicyclol derivatives solutions at different concentrations were added to the cultured cells.
(§8) (8) The experiment was set up with 3 replicates.
(§9) (9) The 96-well plate was placed in a cell culture incubator, and incubation was continued at 37° C. and 5% CO2 for 72 hours. Then, 100 μL of cannabicyclol and cannabicyclol derivative solution per well was discarded (100 μL of DMSO solvent was discarded for the control group), and 20 μL of LMTS (CellTiter AQueous Non-Radioactive Cell Proliferation Assay, #G3581) was mixed and continued to be placed in the cell incubator for 2 hours of incubation.
(§10) (10) The absorbance value at 490 nm was measured on an enzyme labeling apparatus, and the IC50 value was calculated.

[1] = MTS cell viability assay, HEK-293T (293T) normal cells; conditions: human
Method: as §1, §2, §3, §4, §5, §6, §7, §8, §9, §10

U251 = assay: MTS cell viability assay, U251
Method: as §1, §2, §3, §4, §5, §6, §7, §8, §9, §10

[2] = primary viability screening, 72 hours, MTS, test concentration not stated
[3] = primary viability screening, 72 hours, MTS, test concentration not stated, read-out: Cell viability in 293T (%)
[4] = HEK-293T (293T) normal cells, primary viability screening, 72 hours, MTS, test concentration not stated, read-out: Cell viability in 293T (%)

SMILES | selective anti-glioma stem cell viability (GSC-3 (3#-GSC)) | Cell viability in 3#-GSC (%) (GSC-3 (3#-GSC); [2]) | viability at 72 h [1, 3] | Cell viability in U251 (%) (U251; [2]) | Cell viability in 3#-GSC (%) (GSC-3 (3#-GSC); 72 h) | viability at 72 h [1] | Cell viability in U251 (%) (U251; human, 72 h) | viability at 72 h [1, 4]
CC12CCC3C1C(c1c(O)cccc1O2)C3(C)C (centres unmarked) [Compound 3b] | selective anti-glioma stem cell viability | 32% | 97% | 97% | – | – | – | –
Cc1cc(O)c2c(c1)OC1(C)CCC3C1C2C3(C)C (centres unmarked) [Compound 3c] | – | – | – | – | ≥100% | ≥ 100% | 88% | –
CCCc1cc(O)c2c(c1)OC1(C)CCC3C1C2C3(C)C (centres unmarked) [Compound 3d] | – | 40% | – | 71% | – | – | – | 91%
CCCCc1cc(O)c2c(c1)OC1(C)CCC3C1C2C3(C)C (centres unmarked) [Compound 3e] | – | 30% | – | 17% | – | – | – | 60%
CCCCCCc1cc(O)c2c(c1)OC1(C)CCC3C1C2C3(C)C (centres unmarked) [Compound 3f] | a certain degree of selective anti-glioma stem cell viability | 20% | – | 78% | – | – | – | 18%
CCCCCCCc1cc(O)c2c(c1)OC1(C)CCC3C1C2C3(C)C (centres unmarked) [Compound 3g] | – | 90% | – | 79% | – | – | – | 11%
CCCCCCCCc1cc(O)c2c(c1)OC1(C)CCC3C1C2C3(C)C (centres unmarked) [Compound 3h] | – | 87% | – | 75% | – | – | – | 16%
CCCCCCCCCCCCCc1cc(O)c2c(c1)OC1(C)CCC3C1C2C3(C)C (centres unmarked) [Compound 3i] | – | 33% | – | 79% | – | – | – | 8%
CC12CCC3C1C(c1c(O)cc(-c4ccccc4)cc1O2)C3(C)C (centres unmarked) [Compound 3k] | – | – | – | – | 52% | 45% | 15% | –
Cc1ccc(-c2cc(O)c3c(c2)OC2(C)CCC4C2C3C4(C)C)cc1 (centres unmarked) [Compound 3l] | – | – | – | – | 51% | 62% | 45% | –
Cc1cccc(-c2cc(O)c3c(c2)OC2(C)CCC4C2C3C4(C)C)c1 (centres unmarked) [Compound 3m] | weak selective anti-glioma stem cell viability | – | – | – | 42% | ≥ 100% | 90% | –
Cc1ccccc1-c1cc(O)c2c(c1)OC1(C)CCC3C1C2C3(C)C (centres unmarked) [Compound 3n] | – | – | – | – | 41% | 50% | 17% | –
Cc1cc(C)cc(-c2cc(O)c3c(c2)OC2(C)CCC4C2C3C4(C)C)c1 (centres unmarked) [Compound 3o] | – | – | – | – | 64% | 81% | 88% | –
CC(C)(C)c1ccc(-c2cc(O)c3c(c2)OC2(C)CCC4C2C3C4(C)C)cc1 (centres unmarked) [Compound 3p] | weak selective anti-glioma stem cell viability | – | – | – | 67% | ≥ 100% | 97% | –
COc1ccc(-c2cc(O)c3c(c2)OC2(C)CCC4C2C3C4(C)C)cc1 (centres unmarked) [Compound 3q] | – | – | – | – | 39% | 40% | 19% | –
CC12CCC3C1C(c1c(O)cc(-c4ccc(F)cc4)cc1O2)C3(C)C (centres unmarked) [Compound 3r] | – | – | – | – | 43% | 45% | 76% | –
CC12CCC3C1C(c1c(O)cc(-c4ccc(Cl)cc4)cc1O2)C3(C)C (centres unmarked) [Compound 3s] | – | – | – | – | 49% | 64% | 91% | –
CCCCCc1cc(O)c2c(c1)OC1(C)CCC3C(C)C2C31 (centres unmarked) [Compound 3u] | – | 30% | – | 72% | – | – | – | 78%
CCCCCc1cc(O)c2c(c1)OC1(C)CCC3C(CC)C2C31 (centres unmarked) [Compound 3v] | – | 30% | 79% | 71% | – | – | – | –

SMILES | selective anti-glioma stem cell viability (GSC-3 (3#-GSC)) | Cell viability in 3#-GSC (%) (GSC-3 (3#-GSC); [2]) | viability at 72 h [1, 3] | Cell viability in U251 (%) (U251; [2]) | Cell viability in 3#-GSC (%) (GSC-3 (3#-GSC); 72 h) | viability at 72 h [1] | Cell viability in U251 (%) (U251; human, 72 h) | viability at 72 h [1, 4]
CCCCCc1cc(O)c2c(c1)OC1(C)CCC3C(c4ccccc4)C2C31 (centres unmarked) [Compound 3x] | – | 70% | – | 77% | – | – | – | 97%
CCCCCc1cc(O)c2c(c1)OC1(C)CCC3C(C4CC4)C2C31 (centres unmarked) [Compound 3y] | – | 47% | – | 98% | – | – | – | ≥ 100%
C=CCOc1cc(CCCCC)cc2c1C1C3C(CCC3(C)O2)C1(C)C (centres unmarked) [Compound 7a] | – | ≥100% | – | 81% | – | – | – | 77%
CCCCCc1cc(OC)c2c(c1)OC1(C)CCC3C1C2C3(C)C (centres unmarked) [Compound 7b] | – | ≥100% | – | 91% | – | – | – | 95%
CCCCCc1cc(OCC)c2c(c1)OC1(C)CCC3C1C2C3(C)C (centres unmarked) [Compound 7c] | – | ≥100% | – | 80% | – | – | – | 79%
CCCCCc1cc(OCCC)c2c(c1)OC1(C)CCC3C1C2C3(C)C (centres unmarked) [Compound 7d] | – | ≥100% | – | 82% | – | – | – | 77%
C#CCOc1cc(CCCCC)cc2c1C1C3C(CCC3(C)O2)C1(C)C (centres unmarked) [Compound 7e] | – | ≥100% | – | 72% | – | – | – | 75%
CCCCCc1cc(OCC(=O)NCCc2cc3ccccc3[nH]2)c2c(c1)OC1(C)CCC3C1C2C3(C)C (centres unmarked) [Compound 7h] | – | 72% | – | ≥100% | – | – | – | 87%
CCCCCc1cc(OCc2cn(S(=O)(=O)c3ccc(C)cc3)nn2)c2c(c1)OC1(C)CCC3C1C2C3(C)C (centres unmarked) [Compound 7i] | – | 50% | – | 21% | – | – | – | 71%
CCCCCc1cc(OC(C)=O)c2c(c1)OC1(C)CCC3C1C2C3(C)C (centres unmarked) [Compound 9b] | both the viability and selectivity were maintained | 28% | – | 82% | – | – | – | 92%
CCCCCc1cc(OC(=O)Cc2ccc3ccccc3c2)c2c(c1)OC1(C)CCC3C1C2C3(C)C (centres unmarked) [Compound 9e] | – | ≥100% | – | ≥100% | – | – | – | ≥ 100%
C=CC(=O)Oc1cc(CCCCC)cc2c1C1C3C(CCC3(C)O2)C1(C)C (centres unmarked) [Compound 9f] | – | 41% | – | 64% | – | – | – | 35%
CCCCCc1cc(OC(=O)/C=C/c2ccccc2)c2c(c1)OC1(C)CCC3C1C2C3(C)C (centres unmarked) [Compound 9g] | – | ≥100% | – | ≥100% | – | – | – | ≥ 100%
CCCCCc1cc(OC(=O)/C=C/c2ccc(OC)cc2)c2c(c1)OC1(C)CCC3C1C2C3(C)C (centres unmarked) [Compound 9h] | – | 90% | – | ≥100% | – | – | – | ≥ 100%
CCCCCc1cc(OC(=O)c2ccncc2)c2c(c1)OC1(C)CCC3C1C2C3(C)C (centres unmarked) [Compound 9i] | – | 91% | – | 88% | – | – | – | 91%
CCCCCc1cc(OC(=O)c2ccco2)c2c(c1)OC1(C)CCC3C1C2C3(C)C (centres unmarked) [Compound 9j] | – | ≥100% | – | ≥100% | – | – | – | ≥ 100%
CCCCCc1cc(OC(=O)CCCC[P+](c2ccccc2)(c2ccccc2)c2ccccc2)c2c(c1)OC1(C)CCC3C1C2C3(C)C (centres unmarked) [Compound 9s] | – | – | – | – | 40% | 21% | 17% | –
CCCCCc1cc(OC(=O)CCCCOc2cc(=O)oc3ccccc23)c2c(c1)OC1(C)CCC3C1C2C3(C)C (centres unmarked) [Compound 9t] | – | – | – | – | ≥100% | ≥ 100% | ≥100% | –
